Measured values from ChEMBL document CHEMBL6103592, “Discovery of novel thiazole-pleuromutilin derivatives with potent antibacterial activity” (Eur J Med Chem, 2025).
Values after ≈ are worked out from the molar mass of the structure shown. Active and inactive are the calls of the source. The rule behind the calls is not given here.

Columns and labels:
Staphylococcus aureus [1] = experiment: Antibacterial efficacy against methicillin-resistant Staphylococcus aureus ATCC 43300 infected in cyclophosphamide-induced neutropenic systemic infection Kunming mouse model assessed as reduction in bacterial load in lung at 20 mg/kg, iv pretreated with cyclophosphamide for 1 hr followed by compound addition and measured after 5 days; type: functional; conditions: time 5 day
Staphylococcus aureus [2] = experiment: Antibacterial activity against Staphylococcus aureus ATCC 25923 assessed as inhibition of visible bacterial growth incubated for 24 hrs by CLSI based broth microdilution method; type: functional
Enterococcus faecalis = experiment: Antibacterial activity against Enterococcus faecalis assessed as inhibition of visible bacterial growth incubated for 24 hrs by CLSI based broth microdilution method; type: functional
Escherichia coli = experiment: Antibacterial activity against Escherichia coli ATCC 25922 assessed as inhibition of visible bacterial growth incubated for 24 hrs by CLSI based broth microdilution method; type: functional
Staphylococcus aureus [3] = experiment: Bactericidal activity against methicillin-resistant Staphylococcus aureus ATCC 43300 assessed as increase in colony forming unit count at 1 times MIC incubated after 8 hrs by time-kill assay; type: functional, organism-based
Staphylococcus aureus [4] = experiment: Bactericidal activity against methicillin-resistant Staphylococcus aureus ATCC 43300 assessed as log reduction in bacterial count count at 6 times MIC incubated at 24 hrs by time-kill assay; type: functional
Staphylococcus aureus [5] = experiment: Antibacterial activity against methicillin-resistant Staphylococcus aureus ATCC 43300 assessed as post antibiotic effect at 1 times MIC measured after 1 hr; type: functional
Staphylococcus aureus [6] = experiment: Antibacterial activity against methicillin-resistant Staphylococcus aureus ATCC 43300 assessed as post antibiotic effect at 2 times MIC measured after 1 hr; type: functional
Staphylococcus aureus [7] = experiment: Antibacterial activity against methicillin-resistant Staphylococcus aureus ATCC 43300 assessed as post antibiotic effect at 4 times MIC measured after 1 hr; type: functional
Staphylococcus aureus [8] = experiment: Drug resistance, ratio of MIC for methicillin-resistant Staphylococcus aureus ATCC 43300 after 21 passages to MIC for methicillin-resistant Staphylococcus aureus ATCC 43300 during first exposure; type: functional
Staphylococcus aureus [9] = experiment: Antibacterial activity against methicillin resistant Staphylococcus aureus; type: functional
Staphylococcus aureus [10] = experiment: Antibacterial activity against methicillin-resistant Staphylococcus aureus ATCC 43300 assessed as reduction in bacterial proteins level at 0.5 to 2 microg/ml measured for 4 hrs; type: functional, organism-based; conditions: dose 0.5-2 µg/ml
Staphylococcus aureus [11] = experiment: Antibacterial efficacy against methicillin-resistant Staphylococcus aureus ATCC 43300 infected in cyclophosphamide-induced neutropenic systemic infection Kunming mouse model assessed as effect on survival rate at 20 mg/kg, iv pretreated with cyclophosphamide for 1 hr followed by compound addition and measured after 7 days; type: functional, organism-based; conditions: time 7.0 day
Staphylococcus aureus [12] = experiment: Antibacterial efficacy against methicillin-resistant Staphylococcus aureus ATCC 43300 infected in cyclophosphamide-induced neutropenic systemic infection Kunming mouse model assessed as inflammatory cell infiltration in lung at 20 mg/kg, iv pretreated with cyclophosphamide for 1 hr followed by compound addition and measured after 5 days by light microscopic analysis; type: functional, organism-based; conditions: time 5.0 day
[13] = Cytotoxicity against human HEK293T cells assessed as cell viability incubated for 24 hrs by CCK-8 assay; type: toxicity, cell-based, HEK-293T
[14] = Acute toxicity in rat assessed as reduction in food intake at 2000 mg/kg, po measured for 14 days; type: organism-based; conditions: in vivo, 336 h, time 14 day
[15] = Acute toxicity in rat assessed as reduction in food intake at 2000 mg/kg, po measured at 24 hrs; type: organism-based; conditions: in vivo
[16] = Acute toxicity in rat assessed as reduction in water consumption at 2000 mg/kg, po measured at 24 hrs; type: organism-based; conditions: in vivo
[17] = Acute toxicity in rat assessed as pathological changes in spleen at 2000 mg/kg, po measured for 14 days; type: organism-based; conditions: in vivo, 336 h, time 14 day
[18] = Acute toxicity in rat assessed as pathological changes in kidney at 2000 mg/kg, po measured for 14 days; type: organism-based; conditions: in vivo, 336 h, time 14 day
[19] = Acute toxicity in rat assessed as swelling in uterus at 2000 mg/kg, po measured for 14 days by H and E staining based analysis; type: organism-based; conditions: in vivo, 336 h, time 14 day
[20] = Acute toxicity in rat assessed as degeneration of endometrial epithelial cells at 2000 mg/kg, po measured for 14 days by H and E staining based analysis; type: organism-based; conditions: in vivo, 336 h, time 14 day
[21] = Acute toxicity in rat assessed as necrosis of epithelial cells at 2000 mg/kg, po measured for 14 days by H and E staining based analysis; type: organism-based; conditions: in vivo, 336 h, time 14 day
[22] = Acute toxicity in rat assessed as degeneration of glandular epithelial cells at 2000 mg/kg, po measured for 14 days by H and E staining based analysis; type: organism-based; conditions: in vivo, 336 h, time 14 day
[23] = Acute toxicity in rat assessed as absolute heart weight at 2000 mg/kg, po measured for 7 days (reference value: 0.77 +/- 0.12 g); type: organism-based; conditions: in vivo, 168 h, time 7 day
[24] = Acute toxicity in rat assessed as absolute liver weight at 2000 mg/kg, po measured for 7 days (reference value: 8.43 +/- 0.43 g); type: organism-based; conditions: in vivo, 168 h, time 7 day
[25] = Acute toxicity in rat assessed as absolute lung weight at 2000 mg/kg, po measured for 7 days (reference value: 1.12 +/- 0.07g); type: organism-based; conditions: in vivo, 168 h, time 7 day
[26] = Acute toxicity in rat assessed as absolute liver weight at 2000 mg/kg, po administered for 7 days followed by readministration after 7 days and measured at 14 days (reference value: 8.43 +/- 0.43 g); type: organism-based; conditions: in vivo, 336 h, time 14 day
[27] = Acute toxicity in rat assessed as absolute lung weight at 2000 mg/kg, po administered for 7 days followed by readministration after 7 days and measured at 14 days (reference value: 1.12 +/- 0.07 g); type: organism-based; conditions: in vivo, 336 h, time 14 day
[28] = Acute toxicity in rat assessed as absolute kidney weight at 2000 mg/kg, po administered for 7 days followed by readministration after 7 days and measured at 14 days (reference value: 1.60 +/- 0.16 g); type: organism-based; conditions: in vivo, 336 h, time 14 day
[29] = Acute toxicity in rat assessed as relative liver weight at 2000 mg/kg, po measured for 7 days (reference value: 4.36 +/- 0.23 %); type: organism-based; conditions: in vivo, 168 h, time 7 day
[30] = Acute toxicity in rat assessed as relative spleen weight at 2000 mg/kg, po measured for 7 days (reference value: 0.27 +/- 0.02%); type: organism-based; conditions: in vivo, 168 h, time 7 day
[31] = Acute toxicity in rat assessed as relative lung weight at 2000 mg/kg, po measured for 7 days (reference value: 0.58 +/- 0.03%); type: organism-based; conditions: in vivo, 168 h, time 7 day
[32] = Acute toxicity in rat assessed as relative liver weight at 2000 mg/kg, po administered for 7 days followed by readministration after 7 days and measured at 14 days (reference value: 4.36 +/- 0.23 %); type: organism-based; conditions: in vivo, 336 h, time 14 day
[33] = Acute toxicity in rat assessed as relative spleen weight at 2000 mg/kg, po administered for 7 days followed by readministration after 7 days and measured at 14 days (reference value: 0.27 +/- 0.02 %); type: organism-based; conditions: in vivo, 336 h, time 14 day
[34] = Acute toxicity in rat assessed as relative lung weight at 2000 mg/kg, po administered for 7 days followed by readministration after 7 days and measured at 14 days (reference value: 0.58 +/- 0.03 %); type: organism-based; conditions: in vivo, 336 h, time 14 day
[35] = Acute toxicity in rat assessed as relative kidney weight at 2000 mg/kg, po administered for 7 days followed by readministration after 7 days and measured at 14 days (reference value: 0.83 +/- 0.08%); type: organism-based; conditions: in vivo, 336 h, time 14 day

SMILES: C=C[C@]1(C)C[C@@H](OC(=O)CSc2nc(OC(=O)c3ccc(C(C)(C)C)cc3)cs2)[C@]2(C)[C@H](C)CC[C@]3(CCC(=O)[C@H]32)[C@@H](C)[C@@H]1O
- Activity (Staphylococcus aureus [1]): 0.9 log10CFU
- MIC (Staphylococcus aureus [2]): 0.25 µg/mL (≈ 0.382 µM)
- MIC (Enterococcus faecalis): > 32 µg/mL
- MIC (Escherichia coli): > 32 µg/mL
- Activity (Staphylococcus aureus [3]): Active
- log(activity) (Staphylococcus aureus [4]): 3.08
- PAE (Staphylococcus aureus [5]): 0.801 h
- PAE (Staphylococcus aureus [6]): 1.09 h
- PAE (Staphylococcus aureus [7]): 1.85 h
- Ratio (Staphylococcus aureus [8]): 16
- MIC (Staphylococcus aureus [9]): 0.5 µg/mL (≈ 0.765 µM)
- Activity (Staphylococcus aureus [10]): Active
- Activity (Staphylococcus aureus [11]): Active
- Activity (Staphylococcus aureus [12]): Active
- IC50 at 24 h [13]: > 200 µM
- Activity [14]: Toxic
- Activity [15]: Non-toxic
- Activity [16]: Non-toxic
- Activity [17]: Non-toxic
- Activity [18]: Non-toxic
- Activity [19]: Non-toxic
- Activity [20]: Non-toxic
- Activity [21]: Non-toxic
- Activity [22]: Non-toxic
- Activity [23]: 0.75 g
- Activity [24]: 8.5 g
- Activity [25]: 1.13 g
- Activity [26]: 8.57 g
- Activity [27]: 1.28 g
- Activity [28]: 1.63 g
- Activity [29]: 4.34%
- Activity [30]: 0.28%
- Activity [31]: 0.58%
- Activity [32]: 3.97%
- Activity [33]: 0.25%
- Activity [34]: 0.59%
- Activity [35]: 0.76%
